Test: method code SF-ESR, from DOI: 10.3109/10715769009149900, PMID: 2175281
Conditions: pH 2.5

logD	SMILES
0.46	CC1(C)[C@H](C(=O)O)[C@H](C(=O)O)C(C)(C)N1O
1.11	CC1(C)C=C(C(=O)O)C(C)(C)N1O

Same assay, conditions: pH 7.0

logD	SMILES
1.31	CC1(C)C=CC(C)(C)N1O
0.25	CC1(C)C=C(C(N)=O)C(C)(C)N1O
-0.21	CC1(C)CC(C(N)=O)C(C)(C)N1O (stereo unspecified)
1.78	CC1(C)C=CCC(C)(C)N1O
0.34	CC1(C)CC(CO)C(C)(C)N1O (stereo unspecified)

SMILES	logD
CC1(C)CC(O)CC(C)(C)N1O	0.63
CC1(C)CC(=O)CC(C)(C)N1O	0.12

Same assay, conditions: pH 12.0

SMILES	logD
CC1(C)CC(N)C(C)(C)N1O (stereo unspecified)	1.03
CC1(C)CC(CN)C(C)(C)N1O (stereo unspecified)	0.36

Further lines, results first:

logD	SMILES
0.7	CN(C)CC1=CC(C)(C)N(O)C1(C)C
1.14	CC1(C)C=C(CN2CCOCC2)CC(C)(C)N1O
1.88	CC1(C)C=C(CN2CCCCC2)C(C)(C)N1O
0.91	CN(C)CCN(C)CC1=CC(C)(C)N(O)C1(C)C
1.58	CC1(C)C=C(CN2CCCCC2)CC(C)(C)N1O
